Experimental data taken from ChEMBL document CHEMBL4649997, “Data for probe TP-472” (2021).

How the values were obtained:
[1] = target: Bromodomain-containing protein 1 (Homo sapiens) (UniProt O95696); settings: Compound concentration 10.0 uM, Protein concentration 2.0 uM
[2] = target: PH-interacting protein (Homo sapiens) (UniProt Q8WWQ0); settings: Compound concentration 10.0 uM, Protein concentration 2.0 uM
[3] = target: SWI/SNF-related matrix-associated actin-dependent regulator of chromatin subfamily A member 4 (Homo sapiens) (UniProt P51532); settings: Compound concentration 10.0 uM, Protein concentration 2.0 uM
[4] = target: Bromodomain-containing protein 2 (Homo sapiens) (UniProt P25440); settings: Compound concentration 10.0 uM, Protein concentration 2.0 uM
[5] = target: Transcription initiation factor TFIID subunit 1-like (Homo sapiens) (UniProt Q8IZX4); settings: Compound concentration 10.0 uM, Protein concentration 2.0 uM
Peregrin (Homo sapiens) [6] = target: Peregrin (Homo sapiens) (UniProt P55201); settings: Compound concentration 10.0 uM, Protein concentration 2.0 uM
[7] = target: Bromodomain and WD repeat-containing protein 3 (Homo sapiens) (UniProt Q6RI45); settings: Compound concentration 10.0 uM, Protein concentration 2.0 uM
[8] = target: Transcription initiation factor TFIID subunit 1 (Homo sapiens) (UniProt P21675); settings: Compound concentration 10.0 uM, Protein concentration 2.0 uM
[9] = target: Nucleosome-remodeling factor subunit BPTF (Homo sapiens) (UniProt Q12830); settings: Compound concentration 10.0 uM, Protein concentration 2.0 uM
[10] = target: Transcription intermediary factor 1-beta (Homo sapiens) (UniProt Q13263); settings: Compound concentration 10.0 uM, Protein concentration 2.0 uM
[11] = target: Transcription initiation factor TFIID subunit 1 (Homo sapiens) (UniProt P21675); settings: Compound concentration 10.0 uM, Protein concentration 2.0 uM; remark: listed apart in the source
[12] = target: Bromodomain and WD repeat-containing protein 1 (Homo sapiens) (UniProt Q9NSI6); settings: Compound concentration 10.0 uM, Protein concentration 2.0 uM
[13] = target: Bromodomain-containing protein 3 (Homo sapiens) (UniProt Q15059); settings: Compound concentration 10.0 uM, Protein concentration 2.0 uM
CREB-binding protein [14] = target: T1, CREB-binding protein (Homo sapiens, UniProt Q92793); assay: Alphascreen assay. Binding to CREBBPA (domain start/stop: R1081-G1197) by alphascreen assay
[15] = target: T2, Chromatin remodeling regulator CECR2 (Homo sapiens, UniProt Q9BXF3); assay: Alphascreen assay. Binding to CECR2A (domain start/stop: P420-D543) by alphascreen assay
Target sequence in this assay (Q9BXF3 whole entry): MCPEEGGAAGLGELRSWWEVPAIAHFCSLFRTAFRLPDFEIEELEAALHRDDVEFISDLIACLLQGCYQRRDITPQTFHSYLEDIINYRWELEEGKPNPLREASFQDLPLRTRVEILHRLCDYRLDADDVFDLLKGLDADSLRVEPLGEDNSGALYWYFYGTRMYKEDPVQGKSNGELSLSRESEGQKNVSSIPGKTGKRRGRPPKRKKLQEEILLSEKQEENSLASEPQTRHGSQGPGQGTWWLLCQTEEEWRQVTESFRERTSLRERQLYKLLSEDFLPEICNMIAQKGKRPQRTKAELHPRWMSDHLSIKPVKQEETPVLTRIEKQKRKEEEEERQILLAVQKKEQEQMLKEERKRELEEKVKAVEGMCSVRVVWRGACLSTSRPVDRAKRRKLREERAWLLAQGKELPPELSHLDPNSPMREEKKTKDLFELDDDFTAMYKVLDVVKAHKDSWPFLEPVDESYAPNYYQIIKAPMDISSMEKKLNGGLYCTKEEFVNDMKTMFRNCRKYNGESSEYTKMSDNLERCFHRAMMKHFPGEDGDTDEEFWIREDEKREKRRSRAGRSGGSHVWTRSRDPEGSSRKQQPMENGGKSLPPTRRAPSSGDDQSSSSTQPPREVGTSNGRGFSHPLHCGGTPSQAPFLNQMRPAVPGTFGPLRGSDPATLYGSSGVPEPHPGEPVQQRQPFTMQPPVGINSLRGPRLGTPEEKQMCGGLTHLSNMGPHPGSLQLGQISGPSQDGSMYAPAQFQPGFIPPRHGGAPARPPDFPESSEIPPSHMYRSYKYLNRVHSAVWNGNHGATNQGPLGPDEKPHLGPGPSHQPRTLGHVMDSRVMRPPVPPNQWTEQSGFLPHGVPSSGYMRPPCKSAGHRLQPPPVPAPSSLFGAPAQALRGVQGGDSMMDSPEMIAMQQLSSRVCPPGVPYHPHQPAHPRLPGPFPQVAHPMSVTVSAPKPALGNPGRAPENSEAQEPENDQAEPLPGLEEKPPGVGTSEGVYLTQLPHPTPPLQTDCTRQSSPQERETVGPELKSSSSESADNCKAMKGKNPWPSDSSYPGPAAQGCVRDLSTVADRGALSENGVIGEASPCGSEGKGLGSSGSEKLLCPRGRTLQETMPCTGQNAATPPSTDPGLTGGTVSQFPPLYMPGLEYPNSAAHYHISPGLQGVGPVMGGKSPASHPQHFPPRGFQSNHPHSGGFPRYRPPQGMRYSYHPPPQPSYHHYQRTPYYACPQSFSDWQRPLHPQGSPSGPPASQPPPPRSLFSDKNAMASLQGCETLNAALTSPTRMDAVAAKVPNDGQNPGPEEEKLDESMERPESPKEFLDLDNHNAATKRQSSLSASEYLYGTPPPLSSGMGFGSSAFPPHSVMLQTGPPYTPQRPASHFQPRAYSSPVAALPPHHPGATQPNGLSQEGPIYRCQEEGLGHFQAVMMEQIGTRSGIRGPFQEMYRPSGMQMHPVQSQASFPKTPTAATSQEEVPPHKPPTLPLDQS

CREB-binding protein [16] = target: T1, CREB-binding protein; settings: Compound concentration 10.0 uM, Protein concentration 2.0 uM
[17] = target: Bromodomain-containing protein 2 (Homo sapiens) (UniProt P25440); settings: Compound concentration 10.0 uM, Protein concentration 2.0 uM; remark: listed apart in the source
[18] = target: Protein polybromo-1 (Homo sapiens) (UniProt Q86U86); settings: Compound concentration 10.0 uM, Protein concentration 2.0 uM
[19] = target: Bromodomain adjacent to zinc finger domain protein 1A (Homo sapiens) (UniProt Q9NRL2); settings: Compound concentration 10.0 uM, Protein concentration 2.0 uM
[20] = target: Nuclear body protein SP140-like protein (Homo sapiens) (UniProt Q9H930); settings: Compound concentration 10.0 uM, Protein concentration 2.0 uM
[21] = target: Nuclear body protein SP140 (Homo sapiens) (UniProt Q13342); settings: Compound concentration 10.0 uM, Protein concentration 2.0 uM
[22] = target: Bromodomain and PHD finger-containing protein 3 (Homo sapiens) (UniProt Q9ULD4); settings: Compound concentration 10.0 uM, Protein concentration 2.0 uM
[23] = target: Transcription intermediary factor 1-alpha (Homo sapiens) (UniProt O15164); settings: Compound concentration 10.0 uM, Protein concentration 2.0 uM
[24] = target: Bromodomain adjacent to zinc finger domain protein 2A (Homo sapiens) (UniProt Q9UIF9); settings: Compound concentration 10.0 uM, Protein concentration 2.0 uM
[25] = target: Protein polybromo-1 (Homo sapiens) (UniProt Q86U86); settings: Compound concentration 10.0 uM, Protein concentration 2.0 uM; remark: listed apart in the source
[26] = target: ATPase family AAA domain-containing protein 2B (Homo sapiens) (UniProt Q9ULI0); settings: Compound concentration 10.0 uM, Protein concentration 2.0 uM
[27] = target: Bromodomain testis-specific protein (Homo sapiens) (UniProt Q58F21); settings: Compound concentration 10.0 uM, Protein concentration 2.0 uM
[28] = target: Transcription initiation factor TFIID subunit 1-like (Homo sapiens) (UniProt Q8IZX4); settings: Compound concentration 10.0 uM, Protein concentration 2.0 uM; remark: listed apart in the source
[29] = target: SWI/SNF-related matrix-associated actin-dependent regulator of chromatin subfamily A member 2 (Homo sapiens) (UniProt P51531); settings: Compound concentration 10.0 uM, Protein concentration 2.0 uM
[30] = target: Protein polybromo-1 (Homo sapiens) (UniProt Q86U86); settings: Compound concentration 10.0 uM, Protein concentration 2.0 uM; remark: listed apart in the source
Peregrin (Homo sapiens) [31] = target: Peregrin (Homo sapiens) (UniProt P55201); settings: Compound concentration 10.0 uM, Protein concentration 2.0 uM; remark: listed apart in the source
[32] = target: Histone acetyltransferase KAT2A (Homo sapiens) (UniProt Q92830); settings: Compound concentration 10.0 uM, Protein concentration 2.0 uM
[33] = target: Histone-lysine N-methyltransferase ASH1L (Homo sapiens) (UniProt Q9NR48); settings: Compound concentration 10.0 uM, Protein concentration 2.0 uM
[34] = target: Histone-lysine N-methyltransferase 2A (Homo sapiens) (UniProt Q03164); settings: Compound concentration 10.0 uM, Protein concentration 2.0 uM
[35] = target: T2, Chromatin remodeling regulator CECR2; assay: Alphascreen assay. Binding to CECR2A (domain start/stop: P420-H538) by alphascreen assay
Target sequence in this assay (Q9BXF3 whole entry): as above

[36] = target: Protein polybromo-1 (Homo sapiens) (UniProt Q86U86); settings: Compound concentration 10.0 uM, Protein concentration 2.0 uM; remark: listed apart in the source
[37] = target: T2, Chromatin remodeling regulator CECR2; settings: Compound concentration 10.0 uM, Protein concentration 2.0 uM
Target sequence in this assay (Q9BXF3 whole entry, looked up): as the sequence (Q9BXF3 whole entry) above

Peregrin = Peregrin (Homo sapiens, UniProt P55201); assay: Alphascreen assay. Binding to BRPF1B (domain start/stop: M626-G740) by alphascreen assay
[38] = target: Tyrosine-protein kinase BAZ1B (Homo sapiens) (UniProt Q9UIG0); settings: Compound concentration 10.0 uM, Protein concentration 2.0 uM
[39] = target: Bromodomain testis-specific protein (Homo sapiens) (UniProt Q58F21); settings: Compound concentration 10.0 uM, Protein concentration 2.0 uM; remark: listed apart in the source
[40] = target: Bromodomain adjacent to zinc finger domain protein 2B (Homo sapiens) (UniProt Q9UIF8); settings: Compound concentration 10.0 uM, Protein concentration 2.0 uM
[41] = target: Protein polybromo-1 (Homo sapiens) (UniProt Q86U86); settings: Compound concentration 10.0 uM, Protein concentration 2.0 uM; remark: listed apart in the source
[42] = target: Bromodomain-containing protein 9 (Homo sapiens) (UniProt Q9H8M2); settings: Compound concentration 10.0 uM, Protein concentration 2.0 uM
[43] = target: ATPase family AAA domain-containing protein 2 (Homo sapiens) (UniProt Q6PL18); settings: Compound concentration 10.0 uM, Protein concentration 2.0 uM
[44] = target: Bromodomain-containing protein 4 (Homo sapiens) (UniProt O60885); settings: Compound concentration 10.0 uM, Protein concentration 2.0 uM
[45] = target: Histone acetyltransferase p300 (Homo sapiens) (UniProt Q09472); settings: Compound concentration 10.0 uM, Protein concentration 2.0 uM
[46] = target: Protein polybromo-1 (Homo sapiens) (UniProt Q86U86); settings: Compound concentration 10.0 uM, Protein concentration 2.0 uM; remark: listed apart in the source
[47] = target: Histone acetyltransferase KAT2B (Homo sapiens) (UniProt Q92831); settings: Compound concentration 10.0 uM, Protein concentration 2.0 uM
[48] = target: Bromodomain-containing protein 7 (Homo sapiens) (UniProt Q9NPI1); settings: Compound concentration 10.0 uM, Protein concentration 2.0 uM
[49] = target: Bromodomain-containing protein 3 (Homo sapiens) (UniProt Q15059); settings: Compound concentration 10.0 uM, Protein concentration 2.0 uM; remark: listed apart in the source

Sequence of Protein polybromo-1 (Homo sapiens) (Q86U86 whole entry, the tested form may be a part): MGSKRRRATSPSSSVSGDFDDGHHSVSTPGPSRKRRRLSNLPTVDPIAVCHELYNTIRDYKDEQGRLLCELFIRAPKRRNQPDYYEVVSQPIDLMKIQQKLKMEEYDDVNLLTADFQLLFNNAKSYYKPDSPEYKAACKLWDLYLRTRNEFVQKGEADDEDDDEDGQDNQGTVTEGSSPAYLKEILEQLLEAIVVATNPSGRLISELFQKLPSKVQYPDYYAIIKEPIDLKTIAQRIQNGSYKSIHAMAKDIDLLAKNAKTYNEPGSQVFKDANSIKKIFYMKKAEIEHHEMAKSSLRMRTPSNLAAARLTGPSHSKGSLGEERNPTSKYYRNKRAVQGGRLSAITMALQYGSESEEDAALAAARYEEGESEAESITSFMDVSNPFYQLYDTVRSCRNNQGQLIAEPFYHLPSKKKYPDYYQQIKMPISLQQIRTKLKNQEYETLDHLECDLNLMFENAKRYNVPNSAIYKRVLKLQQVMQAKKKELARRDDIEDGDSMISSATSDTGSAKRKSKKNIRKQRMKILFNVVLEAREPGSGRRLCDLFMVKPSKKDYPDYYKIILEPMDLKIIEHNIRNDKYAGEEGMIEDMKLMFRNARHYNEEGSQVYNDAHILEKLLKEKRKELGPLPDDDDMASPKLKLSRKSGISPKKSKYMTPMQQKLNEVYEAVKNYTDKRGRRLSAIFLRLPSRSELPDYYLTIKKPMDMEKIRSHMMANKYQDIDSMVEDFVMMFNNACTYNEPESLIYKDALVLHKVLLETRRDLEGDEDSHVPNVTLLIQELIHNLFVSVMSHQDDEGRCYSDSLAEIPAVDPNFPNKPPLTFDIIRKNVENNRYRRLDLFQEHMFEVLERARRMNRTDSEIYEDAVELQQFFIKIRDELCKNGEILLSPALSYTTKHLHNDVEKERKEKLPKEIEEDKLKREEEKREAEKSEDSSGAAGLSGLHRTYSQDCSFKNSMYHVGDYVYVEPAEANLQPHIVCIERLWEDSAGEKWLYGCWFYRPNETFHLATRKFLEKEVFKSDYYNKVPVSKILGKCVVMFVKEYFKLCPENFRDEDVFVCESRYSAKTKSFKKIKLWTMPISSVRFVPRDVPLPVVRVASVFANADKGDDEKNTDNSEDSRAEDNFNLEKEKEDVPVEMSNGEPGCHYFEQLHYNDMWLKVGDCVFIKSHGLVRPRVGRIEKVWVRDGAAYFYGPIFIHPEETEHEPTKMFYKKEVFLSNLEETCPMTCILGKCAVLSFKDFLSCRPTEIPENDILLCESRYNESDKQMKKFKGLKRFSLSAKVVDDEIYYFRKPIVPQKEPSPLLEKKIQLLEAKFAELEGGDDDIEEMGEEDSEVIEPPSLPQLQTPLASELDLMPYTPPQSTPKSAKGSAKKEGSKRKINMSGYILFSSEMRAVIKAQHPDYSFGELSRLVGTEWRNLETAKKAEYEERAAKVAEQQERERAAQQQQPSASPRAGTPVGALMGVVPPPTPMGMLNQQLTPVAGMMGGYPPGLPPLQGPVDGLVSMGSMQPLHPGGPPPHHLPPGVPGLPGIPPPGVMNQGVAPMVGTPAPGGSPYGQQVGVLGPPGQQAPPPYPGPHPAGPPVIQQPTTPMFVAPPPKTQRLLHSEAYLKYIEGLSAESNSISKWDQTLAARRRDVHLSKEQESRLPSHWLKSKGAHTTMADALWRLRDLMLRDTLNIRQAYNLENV
Sequence of Transcription initiation factor TFIID subunit 1-like (Homo sapiens) (Q8IZX4 whole entry): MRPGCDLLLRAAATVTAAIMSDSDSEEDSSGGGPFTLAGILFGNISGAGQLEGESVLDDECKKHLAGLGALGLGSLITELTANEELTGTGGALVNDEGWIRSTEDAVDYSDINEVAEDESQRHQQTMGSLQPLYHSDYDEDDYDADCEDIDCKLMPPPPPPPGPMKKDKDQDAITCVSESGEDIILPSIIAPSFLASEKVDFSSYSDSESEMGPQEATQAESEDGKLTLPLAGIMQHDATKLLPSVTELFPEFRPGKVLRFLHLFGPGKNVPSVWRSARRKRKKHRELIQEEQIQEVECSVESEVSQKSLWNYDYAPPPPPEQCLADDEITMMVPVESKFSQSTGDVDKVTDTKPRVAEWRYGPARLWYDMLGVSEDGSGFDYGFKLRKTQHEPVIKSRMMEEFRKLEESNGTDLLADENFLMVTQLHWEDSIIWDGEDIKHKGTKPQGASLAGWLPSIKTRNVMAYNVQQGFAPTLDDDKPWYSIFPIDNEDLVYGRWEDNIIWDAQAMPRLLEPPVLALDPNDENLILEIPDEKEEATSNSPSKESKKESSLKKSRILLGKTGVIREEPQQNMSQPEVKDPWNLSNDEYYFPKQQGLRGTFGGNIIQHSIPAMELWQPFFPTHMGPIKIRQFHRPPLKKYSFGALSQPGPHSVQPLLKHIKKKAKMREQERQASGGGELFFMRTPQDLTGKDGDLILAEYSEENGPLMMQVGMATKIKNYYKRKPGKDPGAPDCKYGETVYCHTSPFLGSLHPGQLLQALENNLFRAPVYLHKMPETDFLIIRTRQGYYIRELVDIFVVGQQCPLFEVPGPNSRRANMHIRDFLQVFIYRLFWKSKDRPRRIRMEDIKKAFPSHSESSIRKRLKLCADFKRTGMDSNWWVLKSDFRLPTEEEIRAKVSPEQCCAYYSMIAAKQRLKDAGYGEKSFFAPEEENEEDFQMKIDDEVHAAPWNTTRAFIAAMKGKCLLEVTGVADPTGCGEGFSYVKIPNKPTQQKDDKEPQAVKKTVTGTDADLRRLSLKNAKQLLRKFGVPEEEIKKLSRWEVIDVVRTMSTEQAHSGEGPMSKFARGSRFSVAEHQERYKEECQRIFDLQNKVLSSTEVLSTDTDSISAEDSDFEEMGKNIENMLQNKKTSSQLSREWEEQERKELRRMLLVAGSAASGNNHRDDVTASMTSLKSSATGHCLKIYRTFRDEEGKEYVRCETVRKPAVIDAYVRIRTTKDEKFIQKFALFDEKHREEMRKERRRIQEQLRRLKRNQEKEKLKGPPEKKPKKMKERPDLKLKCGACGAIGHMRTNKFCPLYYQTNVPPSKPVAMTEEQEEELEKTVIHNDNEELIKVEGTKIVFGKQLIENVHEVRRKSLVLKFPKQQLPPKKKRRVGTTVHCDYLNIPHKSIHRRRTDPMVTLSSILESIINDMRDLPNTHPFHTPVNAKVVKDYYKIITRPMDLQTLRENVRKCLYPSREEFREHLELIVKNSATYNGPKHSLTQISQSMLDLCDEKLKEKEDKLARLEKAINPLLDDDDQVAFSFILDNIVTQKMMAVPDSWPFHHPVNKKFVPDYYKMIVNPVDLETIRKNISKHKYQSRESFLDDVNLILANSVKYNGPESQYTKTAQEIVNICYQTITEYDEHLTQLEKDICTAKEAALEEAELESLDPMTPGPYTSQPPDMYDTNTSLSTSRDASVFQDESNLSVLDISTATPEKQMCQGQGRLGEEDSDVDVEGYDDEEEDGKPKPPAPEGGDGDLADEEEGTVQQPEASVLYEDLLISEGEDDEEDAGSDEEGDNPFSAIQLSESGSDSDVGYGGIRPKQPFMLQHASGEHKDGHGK

ΔTm [1]: 0.25 °C | ΔTm [2]: 0.41 °C | ΔTm [3]: 0.08 °C | ΔTm [4]: 0.84 °C | ΔTm [5]: 0.18 °C | ΔTm (Peregrin (Homo sapiens) [6]): 0.29 °C | ΔTm [7]: 1.67 °C | ΔTm [8]: 0.25 °C | ΔTm [9]: -0.04 °C | ΔTm [10]: -0.06 °C | ΔTm [11]: 1.04 °C | ΔTm [12]: 0.79 °C | ΔTm [13]: 1.01 °C | IC50 (CREB-binding protein [14]): 3440 nM | IC50 [15]: 2430 nM | ΔTm (CREB-binding protein [16]): 2.98 °C | ΔTm [17]: 1.14 °C | ΔTm [18]: -0.01 °C | ΔTm [19]: 1.19 °C | ΔTm [20]: 0.95 °C | ΔTm [21]: 0.3 °C | ΔTm [22]: 0.4 °C | ΔTm [23]: 1.33 °C | ΔTm [24]: 1.02 °C | ΔTm [25]: 0.08 °C | ΔTm [26]: 0.11 °C | ΔTm [27]: 0.61 °C | ΔTm [28]: 1.64 °C | ΔTm [29]: 0.13 °C | ΔTm [30]: 0.19 °C | ΔTm (Peregrin (Homo sapiens) [31]): 0.67 °C | ΔTm [32]: 0.61 °C | ΔTm [33]: 0.38 °C | ΔTm [34]: 0.02 °C | IC50 [35]: 2390 nM | ΔTm [36]: -0.26 °C | ΔTm [37]: 3.76 °C | IC50 (Peregrin): 2230 nM | ΔTm [38]: 0.68 °C | ΔTm [39]: 0.83 °C | ΔTm [40]: 1.04 °C | ΔTm [41]: -0.13 °C | ΔTm [42]: 9.32 °C | ΔTm [43]: 0.18 °C | ΔTm [44]: 1.78 °C | ΔTm [45]: 3.55 °C | ΔTm [46]: 0.08 °C | ΔTm [47]: 0.7 °C | ΔTm [48]: 6.98 °C | ΔTm [49]: 0.91 °C
Structure (SMILES): CC(=O)c1cc(-c2cc(C(=O)NC3CC3)ccc2C)c2ncccn12
